Assays:
[1] = system: patients with fibromyalgia; assay: Open label treatment study in fibromyalgia / chronic fatigue syndrome; type: in vivo, human; conditions: 2.5 mg three times daily
Procedure: Five patients with fibromyalgia (ACR criteria) who also met criteria for chronic fatigue syndrome (CDC criteria) gave informed consent to take part in this open label treatment study. All were treated with pindolol 2.5 mg three times daily.

[2] = target: T1, 5HT1a receptor (Homo sapiens, UniProt P08908); assay: Buspirone challenge, prolactin release; type: in vivo; conditions: buspirone 30 mg orally; for Prolactin AUC (mean±SD): blood 0-180 min
T1 construct: Buspirone (30 mg) or matching placebo was administered orally at 0900 h (Time 0); from tissue; host or cells: living human subjects (central receptors)
T1 sequence (P08908 1-422): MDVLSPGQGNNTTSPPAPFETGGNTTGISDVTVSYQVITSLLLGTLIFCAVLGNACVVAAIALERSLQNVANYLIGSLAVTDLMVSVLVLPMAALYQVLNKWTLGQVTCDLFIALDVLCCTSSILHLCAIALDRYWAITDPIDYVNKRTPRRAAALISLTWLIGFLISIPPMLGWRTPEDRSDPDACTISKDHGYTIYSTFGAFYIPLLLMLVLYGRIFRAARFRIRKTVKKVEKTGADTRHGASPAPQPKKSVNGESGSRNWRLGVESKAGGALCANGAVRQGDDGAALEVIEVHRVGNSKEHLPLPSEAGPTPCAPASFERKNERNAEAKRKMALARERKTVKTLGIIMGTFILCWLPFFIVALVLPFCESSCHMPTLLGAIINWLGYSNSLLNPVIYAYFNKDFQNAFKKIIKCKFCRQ
Procedure: A total of 12 subjects (9 female/3 male) and 12 healthy comparison subjects (9 female/3 male) gave fully informed consent to take part in the study. […] All patients fulfilled criteria for both fibromyalgia (ACR criteria) and chronic fatigue syndrome (CDC criteria). […] Buspirone (30 mg) or matching placebo was administered orally at 0900 h (Time 0). Blood was taken at 0, 30, 60, 90, 120 and 180 min.

Row | Prolactin levels after challenge ([2]; all subjects (patients and healthy)) | Prolactin AUC (mean±SD) ([2]; healthy subjects) | Prolactin AUC (mean±SD) ([2]; patients with fibromyalgia and chronic fatigue syndrome) | SMILES | Time to significant improvement in symptoms ([1]; from commencing treatment) [days] | Effect on symptoms, energy levels and general wellbeing ([1]; open label) | Patients showing a significant improvement in symptoms ([1]; open label, five patients with fibromyalgia and chronic fatigue syndrome)
1 | – | – | – | CC(C)NCC(O)COc1cccc2[nH]ccc12 (racemic) [pindolol] | ≤ 10 | reduction in all symptoms and an increase in energy levels and general wellbeing | Four of 5
2 | rose in all subjects | 27±35 | 49±28 | O=C1CC2(CCCC2)CC(=O)N1CCCCN1CCN(c2ncccn2)CC1 [Buspirone] | – | – | –
